Patent US20050112573A1, “Method of detecting toxic substance” (priority 2001, published 2005)

System: yeast genes (level of expressed mRNA)
Experiment: DNA chip analysis of expressed mRNA of yeast genes after 2 h culture with a toxic chemical substance
Type: cell-based, Saccharomyces cerevisiae S288C
Settings: for The level of expressed mRNA in the presence of chemical substance/ (ratio to absence of chemical substance): stress protein genes, DNA chip
Method: Yeast (Saccharomyces cerevtisiae S288C (α SUC2mal mel gap2 CUP1)) were cultured at 25° C. on YPD medium (yeast extract 1%, polypepton 2%, glucose 2%). One of toxic chemical substances was added to the cell at logarithmic growth phase, and the cell was further cultured for two hours. Cell was cultured without any chemical substance in the same condition, and was used as control. Concentrations of the chemical substances were defined to inhibit the growth of the yeast but not lead to death.
After the completion of cultivation, the culture was centrifuged to collect the cells. To the cells, sodium acetate buffer (50 mM sodium acetate, 10 mM EDTA, 1% SDS) was added, and the mixture was shaken at 65° C. for five minutes, followed by returning to room temperature, and obtaining the supernatant, which procedure was repeated two times. To the supernatant, ½ amount of a solution of phenol/chloroform was added, and the mixture was centrifuged to give a supernatant, which was added with an equal amount of chloroform, and the mixture was centrifuged to give a supernatant. To the supernatant, an equal amount of isopropanol containing 0.3 M sodium acetate was added, and the mixture was allowed to stand at room temperature for 30 minutes, after which the mixture was centrifuged to give a sediment of the whole RNAs. Seventy % ethanol was added to the sediment, and the mixture was again centrifuged to give a sediment, which was then dried and dissolved in water. mRNA was isolated from the whole RNAs as followings. In view of the fact that a poly A chain is attached to the 3′ terminus of mRNA, a polynucleotide having a poly T structure which was immobilized on the surface of latex beads was used to trap the mRNA, and then the mRNA was washed and eluted with spine column (Oligotex-dT30<Super>mRNA Purification Kit, Takara). Reverse transcription of the mRNA was conducted with a reverse transcriptase (Super Script II Reverse Transcriptase; catalogue No. 18064-014, GibcoBRL) using fluorescence-labeled nucleotides to give cDNAs that were introduced with Cy3-dUTP or Cy5-dUTP during the reverse transcription.
The labeled cDNAs were dissolved in TE buffer (10 mM Tris-HCl/1 mM EDTA, pH8.0), and the solution was dropped on the DNA chip containing the whole genes of yeast (DNA Chip Research Inc. Japan) so that the cDNAs were hybridized on the DNA chip at 65° C. for over 12 hours. The fluoresces intensity of the DNA chip was read with a scanner, and the ratio relative to the fluorescence intensity resulting from the absence of chemical substance was estimated as the following, which is shown in Tables 1 to 9: [formula]
In the Tables, “Intensity” indicated in the rightmost column is a value of the level of expressed mRNA of each gene in control cells as divided by the average level of the expressions of the whole genes.

SMILES: C[S+](C)[O-] [(15), dimethylsulfoxide]
- The level of expressed mRNA in the presence of chemical substance/absence: YOR267C (gene YOR267C): 1.3
- The level of expressed mRNA in the presence of chemical substance/absence: YOR325W (gene YOR325W): 0.7
- level of expressed mRNA in the presence of chemical substance/in its absence (gene YOR336W): 0.6
- level of expressed mRNA in the presence of chemical substance/in its absence (gene YOR344C): 0.7
- level of expressed mRNA in the presence of chemical substance/in its absence (gene YOR347C): 2.0
- The level of expressed mRNA in the presence of chemical substance/absence: YPL005W (gene YPL005W): 1.2
- level of expressed mRNA in the presence of chemical substance/in its absence (gene YPL017C): 1.0
- The level of expressed mRNA in the presence of chemical substance / the level in the absence of chemical substance, yeast gene YPL107W (gene YPL107W, DNA chip fluorescence ratio to control without chemical, 2 hours culture with chemical, growth-inhibiting non-lethal concentration): 0.7
- The level of expressed mRNA in the presence of chemical substance / the level in the absence of chemical substance, yeast gene YPL138C (gene YPL138C, DNA chip fluorescence ratio to control without chemical, 2 hours culture with chemical, growth-inhibiting non-lethal concentration): 2.7
- The level of expressed mRNA in the presence of chemical substance/absence: YPL150W (gene YPL150W): 1.1
- The level of expressed mRNA in the presence of chemical substance/absence: YPL151C (gene YPL151C): 1.8
- The level of expressed mRNA in the presence of chemical substance/absence: YPL152W (gene YPL152W): 2.3
- The level of expressed mRNA in the presence of chemical substance/absence: YPL168W (gene YPL168W): 0.8
- The level of expressed mRNA in the presence of chemical substance/absence: YPL180W (gene YPL180W): 0.7
- The level of expressed mRNA in the presence of chemical substance/absence: YPL188W (gene YPL188W): 0.8
- The level of expressed mRNA in the presence of chemical substance/absence: YPL221W (gene YPL221W): 1.0
- The level of expressed mRNA in the presence of chemical substance/absence: YPL225W (gene YPL225W): 0.9
- The level of expressed mRNA in the presence of chemical substance/absence: YPL249C (gene YPL249C): 1.0
- The level of expressed mRNA in the presence of chemical substance/absence: YPL260W (gene YPL260W): 1.3
- level of expressed mRNA in the presence of chemical substance/in its absence (gene YPL265W): 1.2
- level of expressed mRNA in the presence of chemical substance/in its absence (gene YPR006C): 0.7
- level of expressed mRNA in the presence of chemical substance/in its absence (gene YPR026W): 3.1
- The level of expressed mRNA in the presence of chemical substance/absence: YPR049C (gene YPR049C): 1.5
- The level of expressed mRNA in the presence of chemical substance/absence: YPR061C (gene YPR061C): 0.4
- The level of expressed mRNA in the presence of chemical substance/absence: YPR093C (gene YPR093C): 0.8
- The level of expressed mRNA in the presence of chemical substance/absence: YPR146C (gene YPR146C): 0.9
- The level of expressed mRNA in the presence of chemical substance/absence: YPR148C (gene YPR148C): 1.7
- The level of expressed mRNA in the presence of chemical substance/absence: YPR150W (gene YPR150W): 0.9
- The level of expressed mRNA in the presence of chemical substance/absence: YPR158W (gene YPR158W): 0.9
- The level of expressed mRNA in the presence of chemical substance/absence: YPR169W (gene YPR169W): 0.9
- The level of expressed mRNA in the presence of chemical substance/absence: YPR172W (gene YPR172W): 1.5
- The level of expressed mRNA in the presence of chemical substance/absence: YPR174C (gene YPR174C): 1.2
- The level of expressed mRNA in the presence of chemical substance/The level of expressed mRNA in the absence of chemical substance (yeast gene YAR010C): 1.8
- The level of expressed mRNA in the presence of chemical substance/The level of expressed mRNA in the absence of chemical substance (yeast gene YBL005W-A): 0.9
- The level of expressed mRNA in the presence of chemical substance/ (ratio to absence), gene YBL038W (yeast gene YBL038W, mitochondria-located protein genes, 2 h culture with chemical): 0.7
- The level of expressed mRNA in the presence of chemical substance/The level of expressed mRNA in the absence of chemical substance (yeast gene YBL041W): 1.3
- The level of expressed mRNA in the presence of chemical substance/The level of expressed mRNA in the absence of chemical substance (yeast gene YBL043W): 1.8
- The level of expressed mRNA in the presence of chemical substance/The level of expressed mRNA in the absence of chemical substance (yeast gene YBL078C): 2.5
- The level of expressed mRNA in the presence of chemical substance/ (ratio to absence of chemical substance) (yeast gene YBL093C): 0.5
- The level of expressed mRNA in the presence of chemical substance/ (in its absence), gene YBR036C (yeast gene YBR036C, ratio of DNA chip fluorescence intensity to that without chemical substance): 1.5
- The level of expressed mRNA in the presence of chemical substance/ (ratio to absence of chemical substance) (yeast gene YBR044C): 0.9
- The level of expressed mRNA in the presence of chemical substance/ (ratio to absence), gene YBR122C (yeast gene YBR122C, mitochondria-located protein genes, 2 h culture with chemical): 0.7
- The level of expressed mRNA in the presence of chemical substance/The level of expressed mRNA in the absence of chemical substance (yeast gene YBR214W): 5.1
- The level of expressed mRNA in the presence of chemical substance/ (ratio to absence), gene YBR251W (yeast gene YBR251W, mitochondria-located protein genes, 2 h culture with chemical): 0.8
- The level of expressed mRNA in the presence of chemical substance/ (in its absence), gene YBR298C (yeast gene YBR298C, ratio of DNA chip fluorescence intensity to that without chemical substance): 0.2
- The level of expressed mRNA in the presence of chemical substance/The level of expressed mRNA in the absence of chemical substance (yeast gene YCL020W): 2.5
- The level of expressed mRNA in the presence of chemical substance/The level of expressed mRNA in the absence of chemical substance (yeast gene YCL027W): 3.6
- The level of expressed mRNA in the presence of chemical substance/The level of expressed mRNA in the absence of chemical substance (yeast gene YCR004C): 0.8
- The level of expressed mRNA in the presence of chemical substance/ (ratio to absence), gene YCR046C (yeast gene YCR046C, mitochondria-located protein genes, 2 h culture with chemical): 1.4
- The level of expressed mRNA in the presence of chemical substance/The level of expressed mRNA in the absence of chemical substance (yeast gene YCR071C): 1.1
- The level of expressed mRNA in the presence of chemical substance/ (ratio to absence), gene YCR083W (yeast gene YCR083W, mitochondria-located protein genes, 2 h culture with chemical): 1.0
- The level of expressed mRNA in the presence of chemical substance/ (ratio to absence of chemical substance) (yeast gene YCR083W): 1.0
- The level of expressed mRNA in the presence of chemical substance/The level of expressed mRNA in the absence of chemical substance (yeast gene YCR088W): 2.8
- The level of expressed mRNA in the presence of chemical substance/The level of expressed mRNA in the absence of chemical substance (yeast gene YDL008W): 0.7
- The level of expressed mRNA in the presence of chemical substance/ in its absence, gene YDL067C (yeast gene YDL067C, energy system protein genes, 2 h culture with the chemical, ratio to control without chemical): 0.7
- The level of expressed mRNA in the presence of chemical substance/ (ratio to absence), gene YDL067C (yeast gene YDL067C, mitochondria-located protein genes, 2 h culture with chemical): 0.7
- The level of expressed mRNA in the presence of chemical substance/ in its absence, gene YDL078C (yeast gene YDL078C, energy system protein genes, 2 h culture with the chemical, ratio to control without chemical): 0.5
